Reference: US20210283110A1, “COMPOUND FOR USE IN THE TREATMENT OF A DISEASE CHARACTERIZED BY DYSREGULATED MUCUS PRODUCTION AND/OR SECRETION” (UNIVERSITÄT REGENSBURG, priority 2018, published 2021)
“Also recorded” adds a separate entry of the source.

Assays:
[1] = test system: airway epithelial specific TMEM16A knockout mice; test: Airway mucus in airway epithelial specific TMEM16A knockout mice; type: in vivo, mouse; conditions: 1 mg/kg intraperitoneally for 5 days
Experimental: In another set of experiments, airway epithelial specific TMEM16A knockout mice were treated with benzbromarone. Airway epithelial specific TMEM16A knockout mice accumulate mucus in club cells, likely due to a secretory defect (FIG. 20A). Benzbromarone […], intraperitoneally) was applied for 5 days to mice with an airway epithelial specific knockout of TMEM16A. […] Thus benzbromarone is beneficial in the treatment of CF by reducing airway mucus plugging and therefore improving lung function.

[2] = test system: TMEM16A-expressing HEK293 cells; test: FM4-64 fluorescence (exocytosis) in TMEM16A-expressing HEK293 cells; type: cell-based; conditions: 10 μM
Experimental: FIG. 8: TMEM16A controls exocytosis. • A) Whole cell current/voltage relationships obtained in mock transfected and TMEM16A (T16A) expressing HEK293 cells. Stimulation with the Ca^2+ ionophore ionomycin (Iono; 1 μM) activated whole cell currents in TMEM16A-expressing cells (n=12). • B) Increase of FM4-64 fluorescence upon stimulation with ionomycin in mock-transfected and TMEM16A-expressing cells, and inhibition by CaCCinhAO1 (AO1; 10 μM) (n=30). • C) Effect of ATP, or • D) CCH (both 100 μM) on FM4-64 fluorescence in cells expressing P2Y2 or M3 receptors (n=30). Mean±SEM. *significant increase by Iono (paired t-test). #significant difference when compared to mock (unpaired t-test).

[3] = test system: airways of OVA-sensitized mice; test: OVA-induced allergic airway inflammation in mice (alcian blue mucus staining, airway cross section, CD45 infiltration); type: in vivo, mouse; conditions: for OVA-induced mucus production: wt mice, tracheal instillation, niflumic acid 20 μM or niclosamide 5 μM
Experimental: Intestinal sections were collected for histological analyses. Mouse airways were fixed by transcardial fixation and were embedded in paraffin or were used as cryosections. For paraffin sections, tissues were fixed in 4% paraformaldehyde (PFA), 0.2% picric acid and 3.4% sucrose in PBS, and were washed in methanol before embedding in paraffin. Sections were stained according to standard Periodic acid-Schiff (PAS) or Alcian Blue methods and assessed by light microscopy.
Mouse models were performed according to the previous example. For investigating mucus, IL-8 release, and leukocytes, tissues were fixed using 4% paraformaldehyde (PFA), 0.2% picric acid and 3.4% sucrose in PBS and washed in methanol before embedding in paraffin. Mucus was analyzed using standard Periodic acid-Schiff (PAS) or alcian blue staining. MUC5AC was stained using anti-MUC5AC mouse antibody (1:200, Abcam, ab3649) and a secondary antibody conjugated with Alexa488 (Life Technologies, A-21206). Nuclei were stained with Hoe33342 (0.1 μg/ml PBS, Aplichem, Darmstadt, Germany). Quantikine ELISA kits (R&D systems) were used to measure secretion of the cytokine IL-8 by Calu3 cells.
All methods were performed as described in the previous examples. Mice were treated with ovalbumin (OVA) to induce an allergic reaction which leads to airway inflammation. […] After allergization with OVA and development of airway inflammation, excessive mucus production and inflammatory infiltration with immune cells is observed. Activation of cholinergic receptors using the muscarinic agonist carbachol (CCH) results in constriction of the airways and secretion of mucus (FIG. 5A-C). 3-day treatment using niclosamide reduced the CCH-induced constriction of the airways (FIG. 1). Furthermore, mucus secretion and inflammatory infiltrates were reduced.
OVA-induced allergic airway inflammation in mice caused pronounced airway goblet cell metaplasia. […] NFA is a well know inhibitor of Ca^2+ activated Cl^− channels and inhibits TMEM16A. The two main TMEM16 paralogs expressed in airway epithelial and smooth muscle cells, TMEM16A and TMEM16F, were expressed in HEK293 cells and the whole cell currents upon activation by the Ca^2+ ionophore ionomycin (Iono) were measured. […] Novel therapeutic strategies for the treatment of inflammatory airway diseases such as CF may therefore consider the use of inhibitors of TMEM16.
The present inventors disclose that airway epithelial knockout of TMEM16A causes a defect in basal, i.e. ATP-mediated mucus secretion. […] Mucus synthesis under inflammatory (OVA) conditions and mucus release upon cholinergic stimulation, however, were not compromised (FIG. 16C). […] Because basal mucus production still occurs in the absence of TMEM16A, other TMEM16 paralogs may also be in charge of mucus synthesis.

TMEM16F = molecular target: T1, TMEM16F (Homo sapiens, UniProt Q4KMQ2); test: Whole cell currents in HEK293 cells expressing TMEM16F (patch clamp); type: cell-based; conditions: HEK293; 1 nM ionomycin; NFA
T1 construct: expressed in transfected cells; host or cells: HEK293 cells
T1 sequence (Q4KMQ2 1-910): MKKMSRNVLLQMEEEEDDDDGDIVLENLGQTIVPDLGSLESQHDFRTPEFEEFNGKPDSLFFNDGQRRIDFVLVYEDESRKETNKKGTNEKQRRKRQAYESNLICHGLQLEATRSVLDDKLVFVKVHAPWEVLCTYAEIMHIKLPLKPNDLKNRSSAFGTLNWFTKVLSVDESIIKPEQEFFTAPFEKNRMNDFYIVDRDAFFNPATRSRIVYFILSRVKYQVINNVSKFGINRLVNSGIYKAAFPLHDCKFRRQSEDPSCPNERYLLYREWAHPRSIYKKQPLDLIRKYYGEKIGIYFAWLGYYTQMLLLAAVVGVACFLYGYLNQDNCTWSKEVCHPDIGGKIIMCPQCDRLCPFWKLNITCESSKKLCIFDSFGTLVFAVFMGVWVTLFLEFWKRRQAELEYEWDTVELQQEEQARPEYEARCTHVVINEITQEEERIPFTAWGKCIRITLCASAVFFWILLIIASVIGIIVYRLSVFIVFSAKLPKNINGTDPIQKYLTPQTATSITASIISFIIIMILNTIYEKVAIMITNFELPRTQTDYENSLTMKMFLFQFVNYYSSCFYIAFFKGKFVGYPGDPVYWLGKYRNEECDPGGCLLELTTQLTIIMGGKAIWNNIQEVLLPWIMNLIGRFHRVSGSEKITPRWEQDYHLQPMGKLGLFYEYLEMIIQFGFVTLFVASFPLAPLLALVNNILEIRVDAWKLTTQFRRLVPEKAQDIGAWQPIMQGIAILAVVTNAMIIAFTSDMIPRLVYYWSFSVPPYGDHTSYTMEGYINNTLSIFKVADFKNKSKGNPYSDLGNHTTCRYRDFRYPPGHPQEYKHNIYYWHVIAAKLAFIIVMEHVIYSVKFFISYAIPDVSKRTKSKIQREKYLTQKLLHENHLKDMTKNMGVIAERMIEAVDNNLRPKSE
Experimental: (§1) FIG. 14: The TMEM16-inhibitor niflumic acid attenuates inflammatory airway disease. • A,B) OVA-sensitization induced pronounced goblet cell metaplasia as indicated by alcian blue positivity. Exposure to carbachol (CCH, 25 mg/ml, nebulizer) induced release of mucus and airway […]. Bars indicate […]. […] Mean±SEM; *significant inhibition by NFA (paired ttest). # significant difference when compared to OVA (unpaired t-test). (n) number of airways analysed or number of cells examined.
(§2) FIG. 15: Inhibition of TMEM16A and TMEM16F by niclosamide. • A) TMEM16A whole cell currents in overexpressing HEK293 cells. […]
(§3) OVA-induced allergic airway inflammation in mice caused pronounced airway goblet cell metaplasia. […] The two main TMEM16 paralogs expressed in airway epithelial and smooth muscle cells, TMEM16A and TMEM16F, were expressed in HEK293 cells and the whole cell currents upon activation by the Ca^2+ ionophore ionomycin (Iono) were measured. […]
(§4) Similar to TMEM16A, also overexpressed TMEM16F was inhibited by niclosamide (FIG. 15D). […] TMEM16A was activated by ionomycin and TMEM16A currents were measured as iodide quenching.

TMEM16A = molecular target: T2, TMEM16A (Homo sapiens, UniProt Q5XXA6); test: Whole cell currents in HEK293 cells expressing TMEM16A (patch clamp); type: cell-based; parameters: expressed in transfected cells; host or cells: HEK293 cells; conditions: HEK293; 1 nM ionomycin; NFA
T2 sequence (Q5XXA6 1-986): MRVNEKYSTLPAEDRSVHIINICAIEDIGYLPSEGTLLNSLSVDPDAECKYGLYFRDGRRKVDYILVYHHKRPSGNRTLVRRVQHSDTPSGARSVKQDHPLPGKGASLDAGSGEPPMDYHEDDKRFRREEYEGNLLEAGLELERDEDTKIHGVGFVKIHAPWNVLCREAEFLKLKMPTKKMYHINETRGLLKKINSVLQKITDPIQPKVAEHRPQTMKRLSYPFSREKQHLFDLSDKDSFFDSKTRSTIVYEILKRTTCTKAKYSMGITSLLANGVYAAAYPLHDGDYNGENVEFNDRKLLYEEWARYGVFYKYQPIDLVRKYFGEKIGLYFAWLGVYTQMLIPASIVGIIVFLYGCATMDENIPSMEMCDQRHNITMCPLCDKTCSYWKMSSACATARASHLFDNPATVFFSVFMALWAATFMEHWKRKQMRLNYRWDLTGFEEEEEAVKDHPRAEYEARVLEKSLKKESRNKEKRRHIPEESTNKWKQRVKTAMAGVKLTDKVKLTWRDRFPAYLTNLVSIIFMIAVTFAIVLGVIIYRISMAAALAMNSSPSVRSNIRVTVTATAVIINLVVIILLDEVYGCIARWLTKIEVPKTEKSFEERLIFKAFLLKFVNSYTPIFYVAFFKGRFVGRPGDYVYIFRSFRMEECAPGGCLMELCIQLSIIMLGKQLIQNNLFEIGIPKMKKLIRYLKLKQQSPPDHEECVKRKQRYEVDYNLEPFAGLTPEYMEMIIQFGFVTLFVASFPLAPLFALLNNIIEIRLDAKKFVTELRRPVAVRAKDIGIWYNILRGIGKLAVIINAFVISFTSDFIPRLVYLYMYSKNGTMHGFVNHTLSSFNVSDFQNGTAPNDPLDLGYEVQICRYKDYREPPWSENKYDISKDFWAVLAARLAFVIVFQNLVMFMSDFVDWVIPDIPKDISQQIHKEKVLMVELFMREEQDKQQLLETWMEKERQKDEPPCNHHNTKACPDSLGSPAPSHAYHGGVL
Experimental: as §1, §2, §3, §4

endogenous TMEM16A = test: Iodide quenching of YFP in HT29 cells stimulated with ionomycin; type: cell-based
Experimental: FIG. 15: Inhibition of TMEM16A and TMEM16F by niclosamide. • A) TMEM16A whole cell currents in overexpressing HEK293 cells. […] Rate of YFP quenching (arbitrary units (au/second), when applying 20 mM iodide to the extracellular bath solution. HT29 cells stably overexpressing YFP were stimulated with […] ionomycin. 100,000 cells were seeded/well. Mean±SEM; (number of experiments) #significant inhibition when compared to the absence of the inhibitor (p<0.05; unpaired t-test); *significant activation by UTP (paired t-test).
Similar to TMEM16A, also overexpressed TMEM16F was inhibited by niclosamide (FIG. 15D). The effect of niclosamide was also examined on endogenous TMEM16A expressed in HT29 colonic carcinoma cells, which were stably transfected with iodide-sensitive yellow fluorescent protein (YFP). TMEM16A was activated by ionomycin and TMEM16A currents were measured as iodide quenching.

[4] = OVA-sensitized mice, acute exposure to TMEM16A activator
[5] = OVA-sensitized mice, 20 mg/kg/day intratracheal for three days before CCH, 20 mg/kg/day

CCc1oc2ccccc2c1C(=O)c1cc(Br)c(O)c(Br)c1 [Benzbromarone, (3,5-dibromo-4-hydroxyphenyl) (2-ethyl-1-benzofuran-3-yl)methanone]
mucus production [1]: largely reduced

CC(C)(C)C1CCc2c(sc(NC(=O)c3ccco3)c2C(=O)O)C1 (stereo not drawn) [CaCCinhAO1]
increase of FM4-64 fluorescence upon stimulation with ionomycin [2]: inhibition

COCCN(C(=O)c1cc(OC)c(OC)c(OC)c1)c1nc(-c2ccccc2)cs1 [Eact]
airway contraction [3, 4]: airway contraction
mucus release [3, 4]: induces massive mucus release

O=C(O)c1cccnc1Nc1cccc(C(F)(F)F)c1 [NFA, niflumic acid]
CCH-induced airway contraction (airway cross sections) [3, 5]: completely blocked; also recorded: strongly attenuated
mucus production / airway mucus [3, 5]: abolished; also recorded: strongly attenuated
OVA-induced mucus production [3]: strongly reduced
OVA-induced mucus production ([3]; listed as niflumic acid): inhibited mucus production
TMEM16F whole cell current activated by ionomycin (TMEM16F): potently suppressed
TMEM16A whole cell current activated by ionomycin (TMEM16A): potently suppressed

O=C(Nc1ncc([N+](=O)[O-])s1)c1ccccc1O [tizoxanide, 2-hydroxy-N-(5-nitro-1,3-thiazol-2-yl)benzamide]
potency compared with CaCCinhAO1 or dichlorophen (endogenous TMEM16A; HT29 YFP iodide quenching): more potent
inhibition of endogenous TMEM16A (iodide quenching of YFP) (endogenous TMEM16A; HT29 cells stably expressing YFP, ionomycin, 20 mM iodide): low nanomolar range
